# Results published in patent US9096598B2 (Merck Sharp & Dohme Corp., priority 2011, dated 2015).
# pIC50: −log10 of the molar value.
# Key:
# JAK3 = target: T1, JAK3 (Homo sapiens, UniProt P52333); experiment: Jak Biochemical HTRF Assay (JAK3); conditions: recombinant purified GST-tagged catalytic domain, [ATP] 2.9 μM, values given as range classes
# T1 construct: recombinant purified GST-tagged catalytic domain for each enzyme; purchased Invitrogen M4290
# How it was run: (§1)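 GST-tagged recombinant catalytic domain and biotinylated peptide substrate were preincubated with compound for 30 min at room temperature in kinase buffer with 2 mM DTT and 0.05% BSA. ATP then started a 120 min reaction. Phosphopeptide was detected by HTRF (Eu-pY20/streptavidin-Dylight 650, 665/615 nm ratio), and IC50 came from a 4-parameter fit of percent inhibition.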
# JAK2 = target: T2, JAK2 (Homo sapiens, UniProt O60674); experiment: Jak Biochemical HTRF Assay (JAK2); conditions: recombinant purified GST-tagged catalytic domain, [ATP] 8.5 μM, values given as range classes
# T2 construct: recombinant purified GST-tagged catalytic domain for each enzyme; purchased Invitrogen M4290
# T2 sequence (O60674 849-1124 limits assumed): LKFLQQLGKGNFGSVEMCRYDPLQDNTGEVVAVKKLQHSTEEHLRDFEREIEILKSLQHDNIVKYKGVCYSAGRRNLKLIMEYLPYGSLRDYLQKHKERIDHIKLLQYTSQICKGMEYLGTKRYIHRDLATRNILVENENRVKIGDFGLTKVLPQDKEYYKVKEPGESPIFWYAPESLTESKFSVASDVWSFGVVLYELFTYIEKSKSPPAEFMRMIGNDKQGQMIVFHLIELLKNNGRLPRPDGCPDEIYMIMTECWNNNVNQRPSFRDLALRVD
# How it was run: as §1
# T1 sequence (P52333 822-1111 limits assumed): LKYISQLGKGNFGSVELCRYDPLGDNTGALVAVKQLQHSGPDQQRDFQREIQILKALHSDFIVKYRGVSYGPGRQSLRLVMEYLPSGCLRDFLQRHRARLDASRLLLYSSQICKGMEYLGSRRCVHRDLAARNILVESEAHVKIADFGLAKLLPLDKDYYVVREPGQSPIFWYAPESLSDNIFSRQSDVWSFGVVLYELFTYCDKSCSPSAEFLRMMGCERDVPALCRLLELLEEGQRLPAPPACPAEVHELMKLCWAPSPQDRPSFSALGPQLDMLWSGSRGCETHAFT
SMILES,pIC50 (JAK3),pIC50 (JAK2)
"N#Cc1cnc2[nH]cc(-c3cncc(N[C@@H]4CCCC[C@@H]4C(=O)NCC(F)(F)F)c3)c2c1 [Example 1-38, (1S,2R)-2-{[5-(5-cyano-1H-pyrrolo[2,3-b]pyridin-3-yl)pyridin-3-yl]amino}-N-(2,2,2-trifluoroethyl)cyclohexane-carboxamide]",≥ 8.00,6.30 to 8.00
"CC(C)NC(=O)c1cnc2[nH]cc(-c3cncc(N[C@@H](C(=O)NCC(F)(F)F)C(C)C)c3)c2c1 [Example 3-2, N-(1-methylethyl)-3-[5-({(1R)-2-methyl-1-[(2,2,2-trifluoroethyl)carbamoyl]propyl}amino)pyridin-3-yl]-1H-pyrrolo[2,3-b]pyridine-5-carboxamide]",≥ 8.00,≥ 8.00
"C[C@@H](Nc1cncc(-c2c[nH]c3ncc(F)cc23)c1)C(=O)NCC(F)(F)F [Example 1-30, N~2~-[5-(5-fluoro-1H-pyrrolo[2,3-b]pyridin-3-yl)pyridin-3-yl]-N-(2,2,2-trifluoroethyl)-D-alaninamide]",6.30 to 8.00,6.30 to 8.00
"CC(C)[C@H](Nc1cncc(-c2c[nH]c3ncc(OCCN4CCCC4=O)cc23)c1)C(=O)NCC(F)(F)F [Example 2-10, N~2~-(5-{5-[2-(2-oxopyrrolidin-1-yl)ethoxy]-1H-pyrrolo[2,3-b]pyridin-3-yl}pyridin-3-yl)-N-(2,2,2-trifluoroethyl)valinamide]",≥ 8.00,6.30 to 8.00
"NC(=O)c1cnc2[nH]cc(-c3cncc(N[C@@H]4CCCC[C@@H]4C(=O)NCC(F)(F)F)c3)c2c1 [Example 1-40, 3-[5-({(1R,2S)-2-[(2,2,2-trifluoroethyl)carbamoyl]cyclo-hexyl}amino)pyridin-3-yl]-1H-pyrrolo[2,3-b]pyridine-5-carboxamide]",≥ 8.00,≥ 8.00
"Clc1cnc2[nH]cc(-c3nncc(N4CCCC4c4nccs4)n3)c2c1 (stereo not drawn) [Example 1-5, 5-chloro-3-{5-[2-(1,3-thiazol-2-yl)pyrrolidin-1-yl]-1,2,4-triazin-3-yl}-1H-pyrrolo[2,3-b]pyridine]",6.30 to 8.00,6.30 to 8.00
"CC(C)[C@H](Nc1cncc(-c2c[nH]c3ncc(OCc4ccccc4)cc23)c1)C(=O)NCC(F)(F)F [Example 2-4, N~2~-{5-[5-(benzyloxy)-1H-pyrrolo[2,3-b]pyridin-3-yl]pyridin-3-yl}-N-(2,2,2-trifluoroethyl)valinamide]",≥ 8.00,6.30 to 8.00
"COc1cnc2[nH]cc(-c3cncc(N[C@H](C)C(=O)NCC(F)(F)F)c3)c2c1 [Example 1-31, N~2~-[5-(5-methoxy-1H-pyrrolo[2,3-b]pyridin-3-yl)pyridin-3-yl]-N-(2,2,2-trifluoroethyl)-D-alaninamide]",≥ 8.00,6.30 to 8.00
"CC(C)(Nc1cnnc(-c2c[nH]c3ncc(F)cc23)n1)C(=O)NCC(F)(F)F [Example 1-6, N~2~-[3-(5-fluoro-1H-pyrrolo[2,3-b]pyridin-3-yl)-1,2,4-triazin-5-yl]-2-methyl-N-(2,2,2-trifluoroethyl)alaninamide]",≥ 8.00,6.30 to 8.00
"CC(C)[C@@H](Nc1cncc(-c2c[nH]c3ncc(COC(C)(C)C)cc23)c1)C(=O)NCC(F)(F)F [Example 9-2, N~2~-{5-[5-(tert-butoxymethyl)-1H-pyrrolo[2,3-b]pyridin-3-yl]pyridin-3-yl}-N-(2,2,2-trifluoroethyl)-D-valinamide]",6.30 to 8.00,6.30 to 8.00

# Continued, values first:
pIC50 (JAK3),pIC50 (JAK2),SMILES
≥ 8.00,≥ 8.00,"CC(C)[C@@H](Nc1cncc(-c2c[nH]c3ncc(C(=O)NC4CCOCC4)cc23)c1)C(=O)NCC(F)(F)F [Example 3-5, 3-[5-({(1R)-2-methyl-1-[(2,2,2-trifluoroethyl)carbamoyl]propyl}amino)pyridin-3-yl]-N-(tetrahydro-2H-pyran-4-yl)-1H-pyrrolo[2,3-b]pyridine-5-carboxamide]"
≥ 8.00,6.30 to 8.00,"COCc1cnc2[nH]cc(-c3cncc(N[C@@H](C(=O)NCC(F)(F)F)C(C)C)c3)c2c1 [Example 9-9, N~2~-{5-[5-(methoxymethyl)-1H-pyrrolo[2,3-b]pyridin-3-yl]pyridin-3-yl}-N-(2,2,2-trifluoroethyl)-D-valinamide]"
≥ 8.00,6.30 to 8.00,"C=CCOCc1cnc2[nH]cc(-c3cncc(N[C@@H](C(=O)NCC(F)(F)F)C(C)C)c3)c2c1 [Example 9-5, N~2~-(5-{5-[(prop-2-en-1-yloxy)methyl]-1H-pyrrolo[2,3-b]pyridin-3-yl}pyridin-3-yl)-N-(2,2,2-trifluoroethyl)-D-valinamide]"
≥ 8.00,6.30 to 8.00,"CC(C)[C@H](Nc1cncc(-c2c[nH]c3ncc(NC(=O)Nc4ccc(F)cc4F)cc23)c1)C(=O)NCC(F)(F)F [Example 6-3, N~2~-[5-(5-{[(2,4-difluorophenyl)carbamoyl]amino}-1H-pyrrolo[2,3-b]pyridin-3-yl)pyridin-3-yl]-N-(2,2,2-trifluoroethyl)valinamide]"
6.30 to 8.00,6.30 to 8.00,"CC(C)[C@@H](Nc1cncc(-c2c[nH]c3ncc(CN4CCCC4)cc23)c1)C(=O)NCC(F)(F)F [Example 9-7, N~2~-{5-[5-(pyrrolidin-1-ylmethyl)-1H-pyrrolo[2,3-b]pyridin-3-yl]pyridin-3-yl}-N-(2,2,2-trifluoroethyl)-D-valinamide]"
≥ 8.00,≥ 8.00,"CC(C)C(Nc1cncc(-c2c[nH]c3ncc(-c4cnn(C)c4)cc23)c1)C(=O)NCC(F)(F)F (racemic) [Example 8-1, N^2-{5-[5-(1-methyl-1H-pyrazol-4-yl)-1H-pyrrolo[2,3-b]pyridin-3-yl]pyridin-3-yl}-N-(2,2,2-trifluoroethyl)valinamide]"
6.30 to 8.00,6.30 to 8.00,"CC(C)=CC(=O)NCc1cnc2[nH]cc(-c3cncc(N[C@H](C(=O)NCC(F)(F)F)C(C)C)c3)c2c1 [Example 10-8, N~2~-[5-(5-{[(3-methylbut-2-enoyl)amino]methyl}-1H-pyrrolo[2,3-b]pyridin-3-yl)pyridin-3-yl]-N-(2,2,2-trifluoroethyl)valinamide]"
6.30 to 8.00,6.30 to 8.00,"CC(C)C(Nc1cncc(-c2c[nH]c3ncc(NS(C)(=O)=O)cc23)c1)C(=O)NCC(F)(F)F (racemic) [Example 5-3, N^2-(5-{5-[(methylsulfonyl)amino]-1H-pyrrolo[2,3-b]pyridin-3-yl}pyridin-3-yl)-N-(2,2,2-trifluoroethyl)valinamide]"
≥ 8.00,6.30 to 8.00,"CNC(=O)Nc1cnc2[nH]cc(-c3cncc(N[C@H](C(=O)NCC(F)(F)F)C(C)C)c3)c2c1 [Example 6-5, N~2~-(5-{5-[(methylcarbamoyl)amino]-1H-pyrrolo[2,3-b]pyridin-3-yl}pyridin-3-yl)-N-(2,2,2-trifluoroethyl)valinamide]"
≥ 8.00,6.30 to 8.00,"CC(=O)Nc1cnc2[nH]cc(-c3cncc(N[C@H](C(=O)NCC(F)(F)F)C(C)C)c3)c2c1 [Example 5-2, N^2-{5-[5-(acetylamino)-1H-pyrrolo[2,3-b]pyridin-3-yl]pyridin-3-yl}-N-(2,2,2-trifluoroethyl)valinamide]"
6.30 to 8.00,< 6.30,"CC(C)C(Nc1cncc(-c2c[nH]c3ncc(S(=O)(=O)N(C)C)cc23)c1)C(=O)NCC(F)(F)F (stereo not drawn) [Example 4-2, 2-(5-(5-(N,N-dimethylsulfamoyl)-1H-pyrrolo[2,3-b]pyridin-3-yl)pyridin-3-ylamino)-3-methyl-N-(2,2,2-trifluoroethyl)butanamide]"
